The values that follow are results of earlier work, collected in patent publication US9024067B2, “Process for preparing carboxylic acid amides useful in the treatment of muscular disorders” (Canbex Therapeutics Limited, priority 2009, dated 2015).

The series deals with spasticity in CREAE mice. The conditions noted are these: initial studies (WO2005/080316).

As for `CC(CO)NC(=O)c1cccc(/C=C\CCCC(=O)N(C)C)c1` (stereo not shown) [VSN-16], the effect on spasticity entry is “marked effect on spasticity”.
